Laboratory results as given in patent publication US11414403B2, “Antibacterial compound and uses of same” (BIOMÉRIEUX, priority 2017, dated 2022).
Converted amounts (≈) assume the structure as drawn.

Experiments:
Test in all cases: MIC by agar dilution method
Type in all cases: cell-based
[1] = system: Escherichia coli NCTC 10418; settings: NCTC10418, 22 hours at 37° C.
Procedure: (§1) The minimum inhibitory concentrations (MICs) of L-pyroglutamyl-L-1-aminoethyltetrazole (12) for 13 Gram-negative strains of bacteria and 8 Gram-positive strains of bacteria were determined using an agar dilution method described by Andrews J M. 2001 (“Determination of minimum inhibitory concentrations[…]; J. Antimicrob. Chemother. (2001) 48 Suppl. 1:5-16). Said method required the use of a defined antagonist-free medium (without peptone), prepared in the way previously described with the inclusion of 2% saponin-lysed horse blood, 25.0 μg/ml of NAD and 25.0 μg/ml of hemin (Atherton et al., 1979; “Phosphonopeptides as antibacterial agents: rationale, chemistry, and structure-activity relationships[…]; Antimicrob. Agents Chemother. (1979) 15:677-683). […] All the isolates were prepared at a density equivalent to […] in sterile deionized water using a densitometer (approximately 1.5×10^8 CFU/ml), then diluted to […]. A 1 μl aliquot of each diluted suspension was then placed on dishes with a multispot inoculator to give the recommended final inoculation of 10 000 CFU/spot (Andrews, 2001. “Determination of minimum inhibitory concentrations”; J. Antimicrob. Chemother. 48 Suppl 1:5-16). All the dishes (including the antimicrobial-free controls) were incubated for 22 hours at 37° C. All the tests were carried out on at least two independent replicates in order to examine the reproducibility.
(§2) The bacterial isolates tested all come from international collections, the American Type Culture Collection (ATCC) and the National Collection of Type Cultures (NCTC).

[2] = system: Salmonella typhimurium NCTC 74; settings: Salmonella enterica, 22 hours at 37° C.
Procedure: as §1, §2

[3] = system: Staphylococcus aureus (MRSA) NCTC 11939; settings: 22 hours at 37° C.
Procedure: as §1, §2

[4] = system: Enterococcus faecalis NCTC 775
Procedure: as §1, §2

[5] = system: Klebsiella pneumoniae NCTC 9528
Procedure: as §1, §2

[6] = system: Staphylococcus epidermidis NCTC 11047; settings: NCTC11047, 22 hours at 37° C.
Procedure: as §1, §2

[7] = system: Enterococcus faecium NCTC 7171
Procedure: as §1, §2

[8] = system: Pseudomonas aeruginosa NCTC 10662; settings: NCTC10662, 22 hours at 37° C.
Procedure: as §1, §2

[9] = system: Staphylococcus aureus (MSSA) NCTC 6571; settings: 22 hours at 37° C.
Procedure: as §1, §2

[10] = system: Providencia rettgeri NCTC 7475; settings: NCTC7475, 22 hours at 37° C.
Procedure: as §1, §2

[11] = system: Yersinia enterocolitica NCTC 11176
Procedure: as §1, §2

[12] = system: Acinetobacter baumannii ATCC 19606; settings: ATCC19606, 22 hours at 37° C.
Procedure: as §1, §2

[13] = system: Salmonella enteritidis NCTC 6676; settings: Salmonella enterica, 22 hours at 37° C.
Procedure: as §1, §2

[14] = system: Bacillus subtilis NCTC 9372
Procedure: as §1, §2

[15] = system: Listeria monocytogenes NCTC 11994; settings: NCTC11994, 22 hours at 37° C.
Procedure: as §1, §2

[16] = system: Streptococcus agalactiae NCTC 8181; settings: NCTC8181, 22 hours at 37° C.
Procedure: as §1, §2

[17] = system: Serratia marcescens NCTC 10211
Procedure: as §1, §2

[18] = system: Enterobacter cloacae NCTC 11936; settings: NCTC11936, 22 hours at 37° C.
Procedure: as §1, §2

[19] = system: Salmonella enteritidis NCTC 74; settings: Salmonella enterica, 22 hours at 37° C.
Procedure: as §1, §2

[20] = system: Escherichia coli NCTC 12241; settings: NCTC12241, 22 hours at 37° C.
Procedure: as §1, §2

[21] = system: Burkholderia cepacia ATCC 25416; settings: ATCC25416, 22 hours at 37° C.
Procedure: as §1, §2

[22] = at very low concentrations, of about 2 mg/l, enterococci

C[C@H](NC(=O)[C@@H]1CCC(=O)N1)c1nnn[nH]1 [compound 12, L-pyroglutamyl-L-1-aminoethyltetrazole]
MIC [1]: > 128 mg/L
MIC [2]: > 128 mg/L
MIC [3]: > 128 mg/L
antibacterial activity (in words) ([4]; Enterococcus faecalis): highly inhibitory
MIC ([4]; NCTC775, Enterococcus faecalis NCTC 775, 22 hours at 37° C.): 2 mg/L (≈ 8.92 µM)
inhibition specificity (in words) [4, 22]: excellent inhibition specificity for enterococci
Growth at various concentrations (mg/l) ([5]; 4 mg/l, Klebsiella pneumoniae NCTC 9528): Tr.
antibacterial activity (in words) ([5]; Klebsiella pneumoniae): highly inhibitory
MIC ([5]; NCTC9528, Klebsiella pneumoniae NCTC 9528, 22 hours at 37° C.): 8 mg/L (≈ 35.7 µM)
MIC [6]: > 128 mg/L
antibacterial activity (in words) ([7]; Enterococcus faecium): highly inhibitory
MIC ([7]; NCTC7171, Enterococcus faecium NCTC 7171, 22 hours at 37° C.): 2 mg/L (≈ 8.92 µM)
inhibition specificity (in words) [7, 22]: excellent inhibition specificity for enterococci
MIC [8]: > 128 mg/L
MIC [9]: > 128 mg/L
MIC [10]: > 128 mg/L
Growth at various concentrations (mg/l) ([11]; 2 mg/l, Yersinia enterocolitica NCTC 11176): Tr.
MIC ([11]; NCTC11176, Yersinia enterocolitica NCTC 11176, 22 hours at 37° C.): 4 mg/L (≈ 17.8 µM)
antibacterial activity (in words) ([11]; Yersinia enterocolitica): highly inhibitory
MIC [12]: > 128 mg/L
MIC [13]: > 128 mg/L
antibacterial activity (in words) ([14]; Bacillus subtilis): highly inhibitory
MIC ([14]; NCTC9372, Bacillus subtilis NCTC 9372, 22 hours at 37° C.): 64 mg/L (≈ 285 µM)
MIC [15]: > 128 mg/L
MIC [16]: > 128 mg/L
MIC ([17]; NCTC10211, Serratia marcescens NCTC 10211, 22 hours at 37° C.): 8 mg/L (≈ 35.7 µM)
antibacterial activity (in words) ([17]; Serratia marcescens): highly inhibitory
MIC [18]: > 128 mg/L
MIC [19]: > 128 mg/L
MIC [20]: > 128 mg/L
MIC [21]: > 128 mg/L
